tested on: Tribolium castaneum; test: Insecticidal activity against fourth-instar Tribolium castaneum (red flour beetle) assessed as inhibition of larval weight gain at 30 degC measured after 2 days by feeding method; assay type: functional

| Structure (SMILES) | I50 [ppm] |
| --- | --- |
| COc1ccc(OC)c(C2CNP(=S)(OC)O2)c1 (stereo not drawn) | 22 |
| COP1(=S)NCC(C)(c2cccc(Br)c2)O1 (stereo not drawn) | >100 |
| COP1(=S)NCC(c2cccc(C(F)(F)F)c2)O1 (stereo not drawn) | >100 |
| COP1(=S)NCC(c2cccc3ccccc23)O1 (stereo not drawn) | 25 |
| COP1(=S)NCC(c2cc(Cl)cc(Cl)c2)O1 (stereo not drawn) | >100 |
| COP1(=S)NCC(c2cc(F)ccc2F)O1 (stereo not drawn) | >100 |
| COP1(=S)NCC(C)(c2cccc3ccccc23)O1 (stereo not drawn) | >100 |
| COP1(=S)NCC(c2cc(C)ccc2C)O1 (stereo not drawn) | 84 |
| COc1ccccc1C1CNP(=S)(OC)O1 (stereo not drawn) | 41 |
| COc1cccc(C2CNP(=S)(OC)O2)c1OC (stereo not drawn) | 6.6 |
| COP1(=S)NCC(c2ccc(F)cc2F)O1 (stereo not drawn) | >100 |
| COP1(=S)NCC(c2ccc(F)cc2)O1 (stereo not drawn) | >100 |
| COP1(=S)NCC(c2ccccc2F)O1 (stereo not drawn) | 41 |
| COP1(=S)NCC(c2ccc(C)cc2C)O1 (stereo not drawn) | 33 |
| COP1(=S)NCC(c2ccccc2)(c2ccccc2)O1 (stereo not drawn) | >100 |
| COP1(=S)NCC2(O1)C1CCC(C1)C2(C)C (stereo not drawn) | >100 |
| COP1(=S)NCC(c2cccc(C)c2)O1 (stereo not drawn) | 15 |

| Structure (SMILES) | I50 [ppm] |
| --- | --- |
| COP1(=S)NCC(c2ccc(-c3ccccc3)cc2)O1 (stereo not drawn) | 62 |
| COP1(=S)NCC2(CCCCC2)O1 (stereo not drawn) | >100 |
| COP1(=S)NCC(c2cccc(Cl)c2Cl)O1 (stereo not drawn) | >100 |
| COP1(=S)NCC(c2ccc(F)c(F)c2)O1 (stereo not drawn) | >100 |
| COc1cccc(C2(C)CNP(=S)(OC)O2)c1 (stereo not drawn) | >100 |
| COP1(=S)NCC(c2cccc(Br)c2)O1 (stereo not drawn) | 59 |
| CCOC(OCC)C1(c2ccccc2)CNP(=S)(OC)O1 (stereo not drawn) | >100 |
| COP1(=S)NCC(c2ccccc2Cl)O1 (stereo not drawn) | 72 |
| COc1cccc(C2CNP(=S)(OC)O2)c1 (stereo not drawn) | 46 |
| COP1(=S)NCC(c2cccc(F)c2)O1 (stereo not drawn) | >100 |
| COP1(=S)NCC(c2ccc3c(c2)OCO3)O1 (stereo not drawn) | >100 |
| COP1(=S)NCC(c2ccccc2)(C(C)C)O1 (stereo not drawn) | >100 |
| COP1(=S)NCC(C(C)c2ccccc2)O1 (stereo not drawn) | >100 |
| COP1(=S)NCC(c2ccc([N+](=O)[O-])cc2)O1 (stereo not drawn) | >100 |
| COP1(=S)NCC(c2ccccc2Br)O1 (stereo not drawn) | 49 |
| COP1(=S)NCC(C)(c2cccc(C)c2)O1 (stereo not drawn) | >100 |

tested on: Musca domestica; test: Insecticidal activity against female Musca domestica (house fly) assessed as mortality compound topically applied to the abdomen measured per fly after 24 hr; assay type: functional

| Structure (SMILES) | LD50 [µg] | pLD50 |
| --- | --- | --- |
| COc1ccc(OC)c(C2CNP(=S)(OC)O2)c1 (stereo not drawn) | >1 |  |
| COP1(=S)NCC(C)(c2cccc(Br)c2)O1 (stereo not drawn) | 0.29 |  |
| COP1(=S)NCC(c2cccc(C(F)(F)F)c2)O1 (stereo not drawn) | >1 |  |
| COP1(=S)NCC(c2cccc3ccccc23)O1 (stereo not drawn) | 0.68 |  |
| COP1(=S)NCC(c2cc(Cl)cc(Cl)c2)O1 (stereo not drawn) | >1 |  |
| COP1(=S)NCC(c2cc(F)ccc2F)O1 (stereo not drawn) | 0.32 |  |
| COP1(=S)NCC(C)(c2cccc3ccccc23)O1 (stereo not drawn) | >1 |  |
| COP1(=S)NCC(c2cc(C)ccc2C)O1 (stereo not drawn) | 0.23 |  |
| COc1ccccc1C1CNP(=S)(OC)O1 (stereo not drawn) | >1 |  |
| COc1cccc(C2CNP(=S)(OC)O2)c1OC (stereo not drawn) | 0.53 |  |
| COP1(=S)NCC(c2ccc(F)cc2F)O1 (stereo not drawn) | 0.35 |  |
| COP1(=S)NCC(c2ccc(F)cc2)O1 (stereo not drawn) | 0.083 | 3.47 |
| COP1(=S)NCC(c2ccccc2F)O1 (stereo not drawn) | 0.14 | 3.25 |
| COP1(=S)NCC(c2ccc(C)cc2C)O1 (stereo not drawn) | 0.73 |  |
| COP1(=S)NCC(c2ccccc2)(c2ccccc2)O1 (stereo not drawn) | >1 |  |
| COP1(=S)NCC2(O1)C1CCC(C1)C2(C)C (stereo not drawn) | >1 |  |
| COP1(=S)NCC(c2cccc(C)c2)O1 (stereo not drawn) | >1 |  |

| Structure (SMILES) | LD50 [µg] | pLD50 |
| --- | --- | --- |
| COP1(=S)NCC(c2ccc(-c3ccccc3)cc2)O1 (stereo not drawn) | >1 |  |
| COP1(=S)NCC2(CCCCC2)O1 (stereo not drawn) | >1 |  |
| COP1(=S)NCC(c2cccc(Cl)c2Cl)O1 (stereo not drawn) | >1 |  |
| COP1(=S)NCC(c2ccc(F)c(F)c2)O1 (stereo not drawn) | 0.59 |  |
| COc1cccc(C2(C)CNP(=S)(OC)O2)c1 (stereo not drawn) | >1 |  |
| COP1(=S)NCC(c2cccc(Br)c2)O1 (stereo not drawn) | 0.2 | 3.19 |
| CCOC(OCC)C1(c2ccccc2)CNP(=S)(OC)O1 (stereo not drawn) | >1 |  |
| COP1(=S)NCC(c2ccccc2Cl)O1 (stereo not drawn) | 0.53 | 2.7 |
| COc1cccc(C2CNP(=S)(OC)O2)c1 (stereo not drawn) | 0.18 | 3.16 |
| COP1(=S)NCC(c2cccc(F)c2)O1 (stereo not drawn) | 0.16 | 3.19 |
| COP1(=S)NCC(c2ccc3c(c2)OCO3)O1 (stereo not drawn) | >1 |  |
| COP1(=S)NCC(c2ccccc2)(C(C)C)O1 (stereo not drawn) | >1 |  |
| COP1(=S)NCC(C(C)c2ccccc2)O1 (stereo not drawn) | >1 |  |
| COP1(=S)NCC(c2ccc([N+](=O)[O-])cc2)O1 (stereo not drawn) | >1 |  |
| COP1(=S)NCC(c2ccccc2Br)O1 (stereo not drawn) | 0.5 | 2.79 |
| COP1(=S)NCC(C)(c2cccc(C)c2)O1 (stereo not drawn) | >1 |  |

Source: ChEMBL document CHEMBL3045238, “Structure-Activity Studies of Insecticidal 2-Methoxy-1, 3, 2-oxazaphospholidine 2-Sulfides against Musca domestica and Tribolium castaneum” (J Pestic Sci, 1990)
